From the NIST ThermoML archive (doi:10.1016/j.tca.2011.01.001)

Experiments:
[1] = Molar enthalpy of transition or fusion; conditions: Crystal; DSC
[2] = for Normal melting temperature: DTA

O=C(O)c1c(O)cccc1O [2,6-dihydroxybenzoic acid]
Conditions	Molar enthalpy of transition or fusion [kcal/mol]
[1]	5.98

[2]
Conditions	vapor or sublimation pressure [kPa]
346 K, Crystal, Torsion effusion method	9.9e-05
347 K, Crystal, Torsion effusion method	0.000113
351.5 K, Crystal, Torsion effusion method	0.00017
353.3 K, Crystal, Torsion effusion method	0.000216
354 K, Crystal, Torsion effusion method	0.000223
355 K, Crystal, Torsion effusion method	0.000248
357 K, Crystal, Torsion effusion method	0.000307
358 K, Crystal, Torsion effusion method	0.000341
360.5 K, Crystal, Torsion effusion method	0.000443
361 K, Crystal, Torsion effusion method	0.000467
361.5 K, Crystal, Torsion effusion method	0.000492
363 K, Crystal, Torsion effusion method	0.000574
363.5 K, Crystal, Torsion effusion method	0.000604
365 K, Crystal, Torsion effusion method	0.000704
366 K, Crystal, Torsion effusion method	0.000779
367 K, Crystal, Torsion effusion method	0.000851
367.5 K, Crystal, Torsion effusion method	0.0009
369 K, Crystal, Torsion effusion method	0.001031
454.2 K, Liquid, Non-isothermal TG	0.643
454.7 K, Liquid, Non-isothermal TG	0.681
455.7 K, Liquid, Non-isothermal TG	0.722
456.7 K, Liquid, Non-isothermal TG	0.754
457.7 K, Liquid, Non-isothermal TG	0.804
458.7 K, Liquid, Isothermal TG	0.809
458.7 K, Liquid, Non-isothermal TG	0.853
459.1 K, Liquid, Isothermal TG	0.829
459.2 K, Liquid, Isothermal TG	0.848
459.7 K, Liquid, Non-isothermal TG	0.904
459.8 K, Liquid, Isothermal TG	0.868
460.2 K, Liquid, Isothermal TG	0.887
460.6 K, Liquid, Isothermal TG	0.907
460.7 K, Liquid, Isothermal TG	0.928
460.8 K, Liquid, Non-isothermal TG	0.954
461 K, Liquid, Isothermal TG	0.928
461.5 K, Liquid, Isothermal TG	0.948
461.8 K, Liquid, Non-isothermal TG	1.006
461.9 K, Liquid, Isothermal TG	0.968
462 K, Liquid, Isothermal TG	0.979
462.7 K, Liquid, Isothermal TG	1
462.7 K, Liquid, Non-isothermal TG	1.056
463.1 K, Liquid, Isothermal TG	1.027
463.5 K, Liquid, Isothermal TG	1.048
463.6 K, Liquid, Isothermal TG	1.055
463.8 K, Liquid, Non-isothermal TG	1.077
464.3 K, Liquid, Isothermal TG	1.087
464.7 K, Liquid, Isothermal TG	1.108
464.8 K, Liquid, Non-isothermal TG	1.121
465.1 K, Liquid, Isothermal TG	1.113
465.2 K, Liquid, Isothermal TG	1.14
465.8 K, Liquid, Non-isothermal TG	1.175
465.9 K, Liquid, Isothermal TG	1.167
466.3 K, Liquid, Isothermal TG	1.187
466.7 K, Liquid, Isothermal TG	1.208
466.8 K, Liquid, Isothermal TG	1.227
466.8 K, Liquid, Non-isothermal TG	1.22
467.5 K, Liquid, Isothermal TG	1.248
467.8 K, Liquid, Non-isothermal TG	1.313
467.9 K, Liquid, Isothermal TG	1.267
468.3 K, Liquid, Isothermal TG	1.288
468.4 K, Liquid, Isothermal TG	1.307
468.8 K, Liquid, Non-isothermal TG	1.364
469.1 K, Liquid, Isothermal TG	1.328
469.5 K, Liquid, Isothermal TG	1.348
469.8 K, Liquid, Non-isothermal TG	1.412
470 K, Liquid, Isothermal TG	1.381
470.1 K, Liquid, Isothermal TG	1.389
470.8 K, Liquid, Isothermal TG	1.434
470.8 K, Liquid, Non-isothermal TG	1.464
471.2 K, Liquid, Isothermal TG	1.442
471.6 K, Liquid, Isothermal TG	1.472
471.7 K, Liquid, Isothermal TG	1.509
471.7 K, Liquid, Non-isothermal TG	1.51
472.5 K, Liquid, Isothermal TG	1.546
472.7 K, Liquid, Non-isothermal TG	1.557
473.7 K, Liquid, Non-isothermal TG	1.644
474.8 K, Liquid, Non-isothermal TG	1.761
475.7 K, Liquid, Non-isothermal TG	1.829
476.7 K, Liquid, Non-isothermal TG	1.847

Conditions	Normal melting temperature [°C]
[2], Crystal	170.6

O=C(O)c1ccc(O)cc1O [2,4-dihydroxybenzoic acid]
Conditions	Molar enthalpy of transition or fusion [kcal/mol]
[1]	7.41

[2]
Conditions	vapor or sublimation pressure [kPa]
364.2 K, Crystal, Torsion effusion method	6.2e-05
365.3 K, Crystal, Torsion effusion method	7e-05
366.3 K, Crystal, Torsion effusion method	8e-05
367.1 K, Crystal, Torsion effusion method	8.9e-05
368.3 K, Crystal, Torsion effusion method	0.000101
369.6 K, Crystal, Torsion effusion method	0.000116
370.8 K, Crystal, Torsion effusion method	0.000131
372.5 K, Crystal, Torsion effusion method	0.000155
374.2 K, Crystal, Torsion effusion method	0.000187
375.7 K, Crystal, Torsion effusion method	0.000218
377.1 K, Crystal, Torsion effusion method	0.000255
379 K, Crystal, Torsion effusion method	0.000312
380.3 K, Crystal, Torsion effusion method	0.000353
382.5 K, Crystal, Torsion effusion method	0.000391
383 K, Crystal, Torsion effusion method	0.000423
384.1 K, Crystal, Torsion effusion method	0.000512
385.2 K, Crystal, Torsion effusion method	0.000576
387.3 K, Crystal, Torsion effusion method	0.000655
388.1 K, Crystal, Torsion effusion method	0.000735
389.2 K, Crystal, Torsion effusion method	0.000821
390.1 K, Crystal, Torsion effusion method	0.000912
511.2 K, Liquid, Non-isothermal TG	2.825
511.7 K, Liquid, Non-isothermal TG	2.896
512.2 K, Liquid, Non-isothermal TG	3.022
512.7 K, Liquid, Non-isothermal TG	3.073
513.3 K, Liquid, Isothermal TG	3.108
513.8 K, Liquid, Isothermal TG	3.111
514.3 K, Liquid, Isothermal TG	3.167
514.8 K, Liquid, Non-isothermal TG	3.343
515.3 K, Liquid, Non-isothermal TG	3.35
515.8 K, Liquid, Non-isothermal TG	3.458
516.4 K, Liquid, Non-isothermal TG	3.553
516.9 K, Liquid, Isothermal TG	3.606
517.4 K, Liquid, Isothermal TG	3.622
517.9 K, Liquid, Isothermal TG	3.638
518.4 K, Liquid, Isothermal TG	3.711
518.9 K, Liquid, Non-isothermal TG	3.901
519.4 K, Liquid, Non-isothermal TG	3.97
519.9 K, Liquid, Non-isothermal TG	4.016
520.4 K, Liquid, Non-isothermal TG	4.161
520.9 K, Liquid, Isothermal TG	4.222
521.4 K, Liquid, Isothermal TG	4.207
521.9 K, Liquid, Isothermal TG	4.223
522.4 K, Liquid, Isothermal TG	4.342
522.9 K, Liquid, Non-isothermal TG	4.463
523.4 K, Liquid, Non-isothermal TG	4.543
523.9 K, Liquid, Non-isothermal TG	4.649
524.4 K, Liquid, Non-isothermal TG	4.833
525.4 K, Liquid, Isothermal TG	4.975
526.4 K, Liquid, Isothermal TG	5.059
526.9 K, Liquid, Isothermal TG	5.093
527.4 K, Liquid, Isothermal TG	5.122
528.4 K, Liquid, Non-isothermal TG	5.41
528.9 K, Liquid, Non-isothermal TG	5.477
529.4 K, Liquid, Non-isothermal TG	5.483
529.9 K, Liquid, Non-isothermal TG	5.556
530.4 K, Liquid, Isothermal TG	5.598
530.9 K, Liquid, Isothermal TG	5.667
531.5 K, Liquid, Isothermal TG	5.675
532 K, Liquid, Isothermal TG	5.825
532.5 K, Liquid, Non-isothermal TG	5.928
533 K, Liquid, Non-isothermal TG	6.061
533.5 K, Liquid, Isothermal TG	6.226
534 K, Liquid, Isothermal TG	6.322

Conditions	Normal melting temperature [°C]
[2], Crystal	228.6
